Legend:
[1] = target: T1, Tyrosine-protein phosphatase non-receptor type 2 (Homo sapiens, UniProt P17706)
T1 sequence (P17706 whole entry): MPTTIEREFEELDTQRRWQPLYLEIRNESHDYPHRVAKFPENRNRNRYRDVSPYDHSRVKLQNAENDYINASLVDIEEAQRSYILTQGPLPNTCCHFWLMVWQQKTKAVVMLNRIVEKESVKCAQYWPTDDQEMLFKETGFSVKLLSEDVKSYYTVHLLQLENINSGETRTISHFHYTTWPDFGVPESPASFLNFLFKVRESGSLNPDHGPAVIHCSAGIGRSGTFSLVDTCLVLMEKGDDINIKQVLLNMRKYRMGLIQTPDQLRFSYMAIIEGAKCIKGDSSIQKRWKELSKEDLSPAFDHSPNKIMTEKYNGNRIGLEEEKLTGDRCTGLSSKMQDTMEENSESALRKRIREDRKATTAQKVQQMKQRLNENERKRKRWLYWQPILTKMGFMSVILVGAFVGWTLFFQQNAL
Description: Inhibition of recombinant human TCPTP

[2] = target: T2, Low molecular weight phosphotyrosine protein phosphatase (Homo sapiens, UniProt P24666); assay: Inhibition of recombinant human ACP1 using pNPP as substrate preincubated with compound for 10 mins followed by substrate addition and measured by absorbance based assay
T2 sequence (P24666 whole entry): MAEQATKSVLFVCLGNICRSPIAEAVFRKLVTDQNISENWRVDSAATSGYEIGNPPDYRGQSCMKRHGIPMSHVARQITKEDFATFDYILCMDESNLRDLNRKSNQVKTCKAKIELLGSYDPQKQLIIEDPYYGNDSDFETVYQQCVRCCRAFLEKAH

[3] = target: T3, Receptor-type tyrosine-protein phosphatase C (Homo sapiens, UniProt P08575)
T3 sequence (P08575 whole entry): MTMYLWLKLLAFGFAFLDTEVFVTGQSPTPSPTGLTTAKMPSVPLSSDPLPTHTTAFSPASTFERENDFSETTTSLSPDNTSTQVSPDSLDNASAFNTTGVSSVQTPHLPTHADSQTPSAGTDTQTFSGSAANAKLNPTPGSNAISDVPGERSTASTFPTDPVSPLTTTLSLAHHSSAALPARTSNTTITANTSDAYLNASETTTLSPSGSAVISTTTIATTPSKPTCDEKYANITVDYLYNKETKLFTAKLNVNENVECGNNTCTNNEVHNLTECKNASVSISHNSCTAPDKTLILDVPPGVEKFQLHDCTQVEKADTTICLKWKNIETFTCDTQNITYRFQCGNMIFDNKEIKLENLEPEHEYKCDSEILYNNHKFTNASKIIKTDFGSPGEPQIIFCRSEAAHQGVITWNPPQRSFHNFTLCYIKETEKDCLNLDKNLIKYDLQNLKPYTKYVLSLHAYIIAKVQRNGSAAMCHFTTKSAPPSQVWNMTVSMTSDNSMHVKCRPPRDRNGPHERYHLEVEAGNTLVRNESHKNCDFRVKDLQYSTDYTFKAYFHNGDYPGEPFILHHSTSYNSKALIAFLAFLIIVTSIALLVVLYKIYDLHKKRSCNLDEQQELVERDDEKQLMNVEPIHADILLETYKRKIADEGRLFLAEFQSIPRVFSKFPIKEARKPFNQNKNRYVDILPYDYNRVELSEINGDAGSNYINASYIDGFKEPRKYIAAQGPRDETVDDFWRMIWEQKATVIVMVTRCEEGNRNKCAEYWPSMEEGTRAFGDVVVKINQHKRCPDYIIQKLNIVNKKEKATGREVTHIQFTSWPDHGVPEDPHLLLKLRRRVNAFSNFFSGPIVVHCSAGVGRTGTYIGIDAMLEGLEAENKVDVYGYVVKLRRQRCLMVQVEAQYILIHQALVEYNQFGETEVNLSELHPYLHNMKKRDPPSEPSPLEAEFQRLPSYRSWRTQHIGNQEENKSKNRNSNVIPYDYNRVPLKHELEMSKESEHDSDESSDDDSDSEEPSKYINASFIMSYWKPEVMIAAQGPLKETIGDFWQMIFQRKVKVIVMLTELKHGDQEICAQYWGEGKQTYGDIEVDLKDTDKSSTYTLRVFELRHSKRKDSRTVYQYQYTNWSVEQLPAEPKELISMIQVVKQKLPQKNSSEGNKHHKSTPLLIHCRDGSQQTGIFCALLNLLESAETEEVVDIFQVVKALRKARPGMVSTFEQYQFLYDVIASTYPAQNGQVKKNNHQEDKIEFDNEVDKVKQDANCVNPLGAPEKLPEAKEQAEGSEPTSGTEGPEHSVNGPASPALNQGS
Description: Inhibition of recombinant human CD45

[4] = target: T4, Tyrosine-protein phosphatase non-receptor type 1 (Homo sapiens, UniProt P18031); assay: Inhibition of recombinant human PTP1B using pNPP as substrate preincubated with compound for 10 mins followed by substrate addition and measured by absorbance based assay
T4 sequence (P18031 whole entry): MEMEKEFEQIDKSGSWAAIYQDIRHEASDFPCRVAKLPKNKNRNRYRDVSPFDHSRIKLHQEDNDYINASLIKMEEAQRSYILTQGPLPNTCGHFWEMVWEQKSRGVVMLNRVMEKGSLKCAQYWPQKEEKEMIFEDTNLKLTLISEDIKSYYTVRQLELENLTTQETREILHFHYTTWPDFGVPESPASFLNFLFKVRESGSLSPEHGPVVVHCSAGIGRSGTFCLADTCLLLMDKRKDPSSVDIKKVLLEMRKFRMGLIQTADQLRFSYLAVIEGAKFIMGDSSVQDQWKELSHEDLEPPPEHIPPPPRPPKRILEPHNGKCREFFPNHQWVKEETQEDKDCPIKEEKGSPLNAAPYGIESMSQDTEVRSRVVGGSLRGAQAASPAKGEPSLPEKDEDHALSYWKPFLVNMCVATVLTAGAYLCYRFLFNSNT

IC50 [1] [µM]	IC50 [2] [µM]	IC50 [3] [µM]	IC50 [4] [µM]	Compound
12.7	5.2	> 40	8.2	COc1cc(/C=C2/NC(=O)N(Cc3ccccc3)C2=O)cc(Cl)c1OCc1cccc(C(=O)O)c1
8.3		> 40		COc1cc(/C=C2/NC(=O)N(Cc3ccc(C)cc3)C2=O)ccc1OCc1cccc(C(=O)O)c1

— ChEMBL document CHEMBL5356965, “Discovery and biological evaluation of novel dual PTP1B and ACP1 inhibitors for the treatment of insulin resistance” (Bioorg Med Chem, 2024)
